PubChem BioAssay AID256 (DTP/NCI, 2004)
Toxic doses and inconclusive results are not listed.

Test system: CD2F1 mice, L1210 leukemia ip, survival T/C
Test: NCI In Vivo Anticancer Drug Screen. Data for tumor model L1210 Leukemia (intraperitoneal) in CD2F1 (CDF1) mice
Conditions: endpoint: mean survival time, higher = longer survival
In short: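 Each value reflects a quotient of treated over vehicle control outcomes in mice with a transplanted tumor.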

[1] = dose: 50.0 mg/kg/injection, schedule: Q04DX002 (ip), vehicle: saline with Tween-80
[2] = dose: 100.0 mg/kg/injection, schedule: Q04DX002 (ip), vehicle: saline with Tween-80
[3] = dose: 100.0 mg/kg/injection, schedule: Q01DX001 (ip), vehicle: saline with Tween-80
[4] = dose: 200.0 mg/kg/injection, schedule: Q01DX001 (ip), vehicle: saline with Tween-80
[5] = dose: 400.0 mg/kg/injection, schedule: Q01DX001 (ip), vehicle: saline with Tween-80
[6] = dose: 100.0 mg/kg/injection, schedule: Q04DX003 (ip), vehicle: saline with Tween-80
[7] = dose: 200.0 mg/kg/injection, schedule: Q04DX003 (ip), vehicle: saline with Tween-80
[8] = dose: 400.0 mg/kg/injection, schedule: Q04DX003 (ip), vehicle: saline with Tween-80
[9] = dose: 100.0 mg/kg/injection, schedule: Q01DX009 (ip), vehicle: saline with Tween-80
[10] = dose: 200.0 mg/kg/injection, schedule: Q01DX009 (ip), vehicle: saline with Tween-80
[11] = dose: 400.0 mg/kg/injection, schedule: Q01DX009 (ip), vehicle: saline with Tween-80

CC(=O)Oc1ccc2ccccc2c1-c1c(OC(C)=O)ccc2ccccc12
T/C (dose: 25.0 mg/kg/injection, schedule: Q04DX002 (ip), vehicle: saline with Tween-80): 101 % of control
T/C [1]: 101 % of control
T/C [2]: 101 % of control

Nc1ccc(NC(=O)COc2cccc(Cl)c2)cc1
T/C [3]: 90 % of control
T/C [4]: 90 % of control
T/C [5]: 95 % of control

COc1ccc(/C=C/C(=O)c2ccc(OC)c(OC)c2)cc1OC
T/C [6]: 96 % of control
T/C [7]: 101 % of control
T/C [8]: 98 % of control

O=[N+]([O-])c1ccc(/C(CBr)=N/N2CCCCC2)cc1
T/C (dose: 100.0 mg/kg/injection, schedule: Q01DX001 (ip), vehicle: saline): 94 % of control
T/C (dose: 200.0 mg/kg/injection, schedule: Q01DX001 (ip), vehicle: saline): 93 % of control
T/C (dose: 400.0 mg/kg/injection, schedule: Q01DX001 (ip), vehicle: saline): 92 % of control

Nc1nc2c(nc(Br)n2C2OC(CO)C(O)C2O)c(=O)[nH]1 (stereo not drawn)
T/C [6]: 98 % of control
T/C [7]: 102 % of control
T/C [8]: 94 % of control

CN(C)N=Nc1ccc(NC(N)=O)cc1
T/C (dose: 6.25 mg/kg/injection, schedule: Q01DX009 (ip), vehicle: saline with Tween-80): 108 % of control
T/C (dose: 6.25 mg/kg/injection, schedule: Q01DX009 (ip), vehicle: saline): 118 % of control
T/C (dose: 12.5 mg/kg/injection, schedule: Q01DX009 (ip), vehicle: saline with Tween-80): 113 % of control
T/C (dose: 12.5 mg/kg/injection, schedule: Q01DX009 (ip), vehicle: saline): 111 % of control
T/C (dose: 25.0 mg/kg/injection, schedule: Q01DX009 (ip), vehicle: saline with Tween-80): 118 % of control
T/C (dose: 37.5 mg/kg/injection, schedule: Q01DX009 (ip), vehicle: Klucel (hydroxypropylcellulose) (HPC)): 158 % of control
T/C (dose: 50.0 mg/kg/injection, schedule: Q01DX009 (ip), vehicle: saline with Tween-80): 159 % of control

N=C(N)c1ccc(N)cc1
T/C (dose: 100.0 mg/kg/injection, schedule: Q04DX003 (ip), vehicle: saline): 103 % of control
T/C (dose: 200.0 mg/kg/injection, schedule: Q04DX003 (ip), vehicle: saline): 101 % of control

N#CCCC(CCC#N)c1ccccc1
T/C [9]: 107 % of control
T/C [6]: 106 % of control
T/C [10]: 103 % of control
T/C [7]: 93 % of control
T/C [11]: 105 % of control
T/C [8]: 104 % of control

O=C(OC1(c2c(F)c(F)c(F)c(F)c2F)C2C=CC1CC2)c1ccc([N+](=O)[O-])cc1 (stereo not drawn)
T/C [1]: 102 % of control
T/C [2]: 105 % of control
T/C (dose: 200.0 mg/kg/injection, schedule: Q04DX002 (ip), vehicle: saline with Tween-80): 98 % of control
T/C (dose: 400.0 mg/kg/injection, schedule: Q04DX002 (ip), vehicle: saline with Tween-80): 90 % of control

Clc1ccc(OCc2sc3ccc(Cl)cc3c2CN2CCOCC2)cc1
T/C [9]: 94 % of control
T/C [10]: 101 % of control
T/C [11]: 92 % of control

COc1cc(C(O)C(Cl)(Cl)Cl)ccc1O (stereo not drawn)
T/C (dose: 100.0 mg/kg/injection, schedule: Q01DX009 (ip), vehicle: other): 94 % of control
T/C (dose: 200.0 mg/kg/injection, schedule: Q01DX009 (ip), vehicle: other): 105 % of control
T/C (dose: 400.0 mg/kg/injection, schedule: Q01DX009 (ip), vehicle: other): 94 % of control

CCOc1ccc(N=Nc2sc(N)nc2-c2cccc([N+](=O)[O-])c2)cc1
T/C [3]: 89 % of control
T/C [4]: 96 % of control
T/C [5]: 96 % of control

NC1CS(=O)(=O)CC1O (stereo not drawn)
T/C [6]: 98 % of control
T/C [7]: 96 % of control
T/C [8]: 95 % of control

CC1=NN(c2cc(Cl)c(S(=O)(=O)O)cc2Cl)C(=O)C1
T/C [9]: 92 % of control
T/C [10]: 92 % of control
T/C [11]: 86 % of control

CC([NH-])CC(C)[NH-].O=C(O)C(=O)O.[Pt+2] (stereo not drawn)
T/C (dose: 12.5 mg/kg/injection, schedule: Q04DX003 (ip), vehicle: saline with Tween-80): 169 % of control
T/C (dose: 12.5 mg/kg/injection, schedule: Q04DX003 (ip), vehicle: saline): 156 % of control
T/C (dose: 25.0 mg/kg/injection, schedule: Q04DX003 (ip), vehicle: saline with Tween-80): 100 % of control
T/C (dose: 25.0 mg/kg/injection, schedule: Q04DX003 (ip), vehicle: saline): 186 % of control
